Results: patent US20200360391A1, “Medicinal Composition for Treating Intractable Heart Disease” (Osaka University, priority 2016, published 2020)
Structures can show the parent of a compound that is named as a salt. Where two headings read alike, the source gives them in different places.

How the values were obtained:
[1] = human, in vivo; cited from earlier work
[2] = test system: spontaneous dilated cardiomyopathy (J2N-k) hamster model; test: Spontaneous dilated cardiomyopathy (J2N-k) hamster model, 8-week administration from 20 weeks of age (Tests 1-3): echocardiography, body weight; settings: for Body weight 0 W: Test 2, at grouping; for Minimal effective dose (screening 2): mg/kg twice per day, oral preparation
Protocol: The doses of pharmaceutical products were determined based on the no-observed-adverse-effect levels in a long-term toxicity study using rats. δ-Glycan-deficient spontaneous dilated cardiomyopathy (J2N-k) male hamsters (Japan SLC, Inc.) were delivered at 18 weeks of age. After a 2-week quarantine/acclimation, echocardiography was performed.
Each of the pharmaceutical products (A to K and O) was individually administered twice daily (at an interval of 8 hours or more) by oral gavage, and echocardiography was performed after 4 and 8 weeks (before dissection). Differences from the value before the start of administration (at the time of grouping) (amount of change: Δ) in each group were examined, and the cardiac function (EF value, FS %, etc.) was compared with that in the vehicle group (Group 1). Moreover, the heart was removed […] after the start of administration, and electron microscopy and RNA protein measurement were performed. Specimens for immunopathology were also collected and evaluated.
Each pharmaceutical product was individually suspended in 0.5% CMC-Na (sodium carboxymethylcellulose; Wako Pure Chemical Industries, Ltd.) before use, and administered. […] To Group 1 (control), 0.5% CNC-Na (vehicle) was administered.
Each pharmaceutical product was individually suspended in 0.5% CMC-Na (sodium carboxymethylcellulose; Wako Pure Chemical Industries, Ltd.) before use, and administered. Test substance G was suspended in distilled water before use, and administered.
Reason the doses were set (assuming that the adult body weight was 60 kg, the same amounts as the maximum clinical doses were set) • 1) The clinical dose of C (ozagrel; OZ) was 200 mg twice per day. The dose was thus set to 3.3 mg/kg twice per day. • 2) The clinical dose of D (cilostazol; CS) was 100 mg twice per day. The dose was thus set to 1.7 mg/kg twice per day. • 3) The clinical dose of E (pirfenidone; PF) was 600 mg three times per day, i.e., 1800 mg/day in total. The dose was thus set to 15 mg/kg twice per day. • 4) The clinical dose of G (nintedanib sulfonate; OB) was 150 mg twice per day. The dose was thus set to 2.5 mg/kg twice per day. • 5) The clinical dose of P (carvedilol; CV) was 10 mg twice per day. The dose was thus set to 0.17 mg/kg twice per day. • 6) Preparation 2 (PLGA⋅MS preparation of camostat; B⋅MS): the clinical dose of active substance camostat was 200 mg three times per day, i.e., 600 mg/day in total; thus, intermittent subcutaneous administration at a daily dose of 10 mg/kg once every 4 weeks, twice in total was set. The dose was 1/28 of the total oral dose amount.
The dose volume in oral administration was 5 mL/kg (the amount of liquid to be administered to each animal was calculated based on the most recent body weight), and administered by oral gavage using a polypropylene disposable syringe and a rat stomach tube.
The administration period of each pharmaceutical product was 8 weeks.

[3] = test system: BLM-induced mouse pulmonary fibrosis model; settings: cited from earlier work
[4] = test system: rat coronary artery complete ischemia model; test: Model of ischemia (MI) by rat coronary artery complete ligation (Tests 1 and 2): echocardiography, body weight; settings: for Body weight / value of change in E.F. compared with E.F. on Day 1 / value of change in F.S. compared with F.S. on Day 1: MI Test 2, B 150, G 5, I 30, C 10 mg/kg p.o. b.i.d.; for Body weight: B MS 100, C MS 50, I MS 30 mg/kg s.c. single injection, mean; for value of change in E.F. compared with E.F. on Day 1 / value of change in F.S. compared with F.S. on Day 1: B-MS 100, C-MS 50, F-MS 30 mg/kg s.c. single injection, mean ± S.D.
rats [5] = settings: cited from earlier work
rats [6] = test: Repeated oral administration toxicity study in rats (dose-setting basis); settings: mg/kg twice per day, oral preparation
Source text: The dose-setting basis for the doses of the test substances used in pharmacological tests is as described below.

rats [7] = settings: cited from earlier work; remark: listed apart in the source
[8] = Test 2, p.o. b.i.d., NOAEL-based dose

SMILES | Body weight 0 W [2] | LVIDd 4 W ([2]; Test 2, p.o. b.i.d.) | LVIDd 8 W ([2]; Test 2, p.o. b.i.d.) | LVIDs 4 W ([2]; Test 2, p.o. b.i.d.) | LVIDs 8 W ([2]; Test 2, p.o. b.i.d.) | Body weight 2 W [2, 8] | Body weight 3 W [2, 8] | Body weight 4 W [2, 8] | Body weight 5 W [2, 8] | Minimal effective dose (screening 2) [2] | Body weight ([4]; 1 Day) | Body weight ([4]; 7 Day) | Body weight ([4]; 14 Day) | value of change in E.F. compared with E.F. on Day 1 ([4]; 14 Day) | value of change in F.S. compared with F.S. on Day 1 ([4]; 14 Day) | Body weight ([4]; 21 Day) | Body weight ([4]; 29 Day) | value of change in E.F. compared with E.F. on Day 1 ([4]; 29 Day) | value of change in F.S. compared with F.S. on Day 1 ([4]; 29 Day) | Maximum no-observed-adverse-effect level (screening 1) (rats [6]) | also measured
COC(=O)c1ccc2c(c1)NC(=O)/C2=C(\Nc1ccc(N(C)C(=O)CN2CCN(C)CC2)cc1)c1ccccc1 [Compound G, Nintedanib ethanesulfonate] | 121.6 g | 6.9 mm | 7.2 mm | 5.7 ± mm | 6.1 ± mm | 122.0 g | 123.8 g | 126.1 g | 127.1 g | 2.5 mg/kg | 240.9 g | 248.1 g | 273.9 g | <−6.2 ± 1.8> % | <−3.4 ± 1.1> % | 290.5 g | 311.0 g | <−11.0 ± 2.7> % | <−5.8 ± 3.6> % | 5 mg/kg | Abdominal pain cases [1]: 10.2%; Diarrhea cases [1]: 53.6%; Elevated AST (GOT) and/or ALT (GPT) / liver enzyme cases [1]: 10.5%; Nausea cases (cilostazol: nausea/vomiting) [1]: 19.1%; % FS 4 W [2, 8]: significantly higher; % FS value of change at 4 W compared with 0 W [2, 8]: significantly higher; Body weight 1 W [2, 8]: 121.3 g; Body weight 7 W [2, 8]: 129.2 g; Body weight 8 W [2, 8]: 128.9 g; EF 4 W [2, 8]: significantly higher; LVIDs 8 W ([2]; Test 2, p.o. b.i.d., listed as nintedanib): significantly lower; Cardiac function (EF, FS %) actual measured value and/or amount of change compared with control, 8 W value ([2]; Test 3, clinical dose): significant cardiac function improvement effect; Inhibitory effect on pulmonary fibrosis, 60 mg/kg versus 30 mg/kg ([3]; prophylactic administration Day 0 to Day 14, once daily oral gavage): slightly higher inhibitory effect on pulmonary fibrosis; Dose with apparent effect on both inflammation and fibrosis ([3]; therapeutic administration Day 7 to Day 21, once daily oral gavage): 60 mg/kg; EF actual measured value and/or amount of change compared with control ([4]; MI Test 2, Day 14 and Day 29): significantly higher; Values of cardiac function (EF, FS %) compared with control ([4]; MI Test 2, oral b.i.d. 4 weeks or single subcutaneous administration): significantly higher; No-observed-adverse-effect level (rats [5]; rats, 6 months): 5 mg/kg; Dose at which toxic findings were observed (rats [5]; repeated administration in rats, duration per compound): 20 mg/kg/day
CCCc1nn(C)c2c(=O)[nH]c(-c3cc(S(=O)(=O)N4CCN(C)CC4)ccc3OCC)nc12 [Compound I, Sildenafil citrate] | 120.4 g | 7.1 mm | 7.3 mm | 5.9 mm | 6.2 ± mm | 122.3 g | 123.7 g | 125.5 g | 126.9 g | 0.4 mg/kg | 240.3 g | 237.3 g | 263.0 g | <−5.1 ± 2.5> % | <−2.8 ± 1.4> % | 278.3 g | 297.5 g | <−7.6 ± 4.3> % | <−4.1 ± 2.3> % | 30 mg/kg | Lethal dose (rats [7]; intravenous injection in rats): ≥ 10 mg/kg; Lethal dose (rats [7]; oral administration): ≥ 1000 mg/kg; Body weight 6 W [2, 8]: 128.9 g
